Data reported in patent publication US20200165194A1, “ADDITIVE COMPOSITION FOR CULTURE MEDIUM, ADDITIVE COMPOUND FOR CULTURE MEDIUM, AND METHOD FOR CULTURE OF CELLS OR TISSUE USING SAME” (NISSAN CHEMICAL CORPORATION, priority 2017, published 2020).
Where two headings read alike, the source gives them in different places.

Assays:
Format in all cases: cell-based
[1] = test system: human epithelial-like cell cancer-derived cell line A431; assay: Various human cancer cells-2, 3D culture, ATP assay (Experimental Example 6); conditions: 4 days; for viability at 5 µM: Homo sapiens, A-431, 96 h, read-out: number of viable cells (RLU), relative value to control (100%)
Protocol: (§1) Various human-derived cancer cells were precultured (single layer culture) in respective media shown below. […] The above-mentioned cells in the logarithmic growth phase were washed with PBS, a 0.25 w/v % trypsin-1 mmol/L EDTA (ethylenediaminetetraacetic acid) solution (manufactured by Wako Pure Chemical Industries, Ltd.) was added, and adherent cells were detached by incubating at 37° C. for 1-5 min. Each medium was added and the mixture was centrifuged. After resuspension in the same medium, each cell was recovered.
(§2) The aforementioned various cells were suspended in respective deacylated gellan gum-containing or not containing media (deacylated gellan gum concentration was 0.015 w/v %), and seeded in a 96 well low attachment U-bottom plate (manufactured by Corning, #4520, deacylated gellan gum-free medium), or a low attachment flat bottom plate (manufactured by Corning, #3474, deacylated gellan gum-containing medium) at a cell concentration of 700-12000 cells/90 μL/well (all 3D culture). […] The amount of each compound solution to be added was 10 μL/well. As a control, a DMSO solution dissolved in a medium was added (DMSO final concentration 0.1%). […] When compared with the compound no-addition (control), one showing a value of not more than 119% as -, one showing a value of not less than 120% as ◯, and one showing a value of not less than 150% as ⊚ are shown in the eleventh table and the twelfth table. Unperformed test is left blank.

[2] = test system: human malignant melanoma-derived cell line A375; assay: as above; conditions: 4 days; for viability at 5 µM / viability at 10 µM: Homo sapiens, A-375, 96 h, read-out: number of viable cells (RLU), relative value to control (100%)
Protocol: as §1, §2

[3] = test system: human prostate cancer-derived cell DU145; assay: as above; conditions: 4 days
Protocol: as §1, §2

[4] = test system: human stomach adenocarcinoma-derived cell line AGS; assay: as above; conditions: 4 days; for viability at 5 µM / viability at 10 µM: Homo sapiens, 96 h, read-out: number of viable cells (RLU), relative value to control (100%)
Protocol: as §1, §2

[5] = test system: human uterus cervix cancer-derived cell line HeLa; assay: as above; conditions: 4 days
Protocol: as §1, §2

[6] = test system: a plurality of cancer cell lines; assay: Various human cancer cells-1, summary over the cell lines (Experimental Example 5); conditions: cancer cell lines under three-dimensional conditions
Text: Various human-derived cancer cells were precultured (single layer culture) in respective media shown below. […]

[7] = low attachment U-bottom plate, 5 μM
[8] = low attachment U-bottom plate, 10 μM
[9] = low attachment flat bottom plate (gellan gum medium), 5 μM
[10] = low attachment flat bottom plate (gellan gum medium), 10 μM

In the case of `CC/C(=N\NC(=O)C(C)Nc1ccccc1)c1ccc(O)c(C)c1O` (stereo not shown) [k-1:B-1], the “number of viable cells (RLU), relative value to control (100%)” value (“number … relative value to control (100%)” below) [1, 7] is reported as “⊙”, the “number … relative value to control (100%)” value [1, 8] is reported as “⊙” and the “number … relative value to control (100%)” value [1, 9] is reported as “⊙”. The “number … relative value to control (100%)” value [1, 10] was “⊙”, the viability at 5 µM [2, 9] was over 120% and the viability at 10 µM [2, 10] was over 120%. For the same molecule, the “number … relative value to control (100%)” value [2, 7] was “⊙”, the “number … relative value to control (100%)” value [2, 8] was “⊙” and the “number … relative value to control (100%)” value [3, 7] was “⊙”. For the same molecule, the “number … relative value to control (100%)” value [3, 8] was “⊙”, the “number … relative value to control (100%)” value [3, 9] was “⊙” and the “number … relative value to control (100%)” value [3, 10] was “⊙”. For the same molecule, the viability at 5 µM [4, 9] was over 120%, the “number … relative value to control (100%)” value [4, 7] was “⊙” and the “number … relative value to control (100%)” value [4, 8] was “⊙”. The “number … relative value to control (100%)” value [4, 10] was “⊙”, the “number … relative value to control (100%)” value [5, 7] was “⊙” and the “number … relative value to control (100%)” value [5, 8] was “⊙”. For the same molecule, the “number … relative value to control (100%)” value [5, 9] was “⊙” and the “number … relative value to control (100%)” value [5, 10] was “⊙”.
With `CCC(=NNC(=O)C(CC)Nc1ccccc1)c1ccc(O)c(C)c1O` (stereo not shown) [k-1:H-7] the “proliferation activity (in words)” value [6] was “promoted proliferation activity in a plurality of cancer cell lines”.
For `CC/C(=N\NC(=O)Nc1ccccc1)c1ccc(O)c(C)c1O` [k-1:H-10], the “proliferation activity (in words)” value [6] was “promoted proliferation activity in a plurality of cancer cell lines”.
For `CC/C(=N\NC(=O)NCc1ccccc1)c1ccc(O)c(C)c1O` [k-1:I-1], the viability at 5 µM [1, 7] was 120 to 150%, the viability at 5 µM [1, 9] was under 119% and the “number … relative value to control (100%)” value [1, 8] was “⊙”. The “number … relative value to control (100%)” value [1, 10] was “⊙”, the viability at 5 µM [2, 7] was 120 to 150% and the viability at 10 µM [2, 8] was 120 to 150%. For the same molecule, the viability at 5 µM [2, 9] was under 119%, the viability at 10 µM [2, 10] was under 119% and the viability at 5 µM ([3]; Homo sapiens, DU-145, 96 h, low attachment U-bottom plate, 5 μM, read-out: number of viable cells (RLU), relative value to control (100%)) was under 119%. For the same molecule, the viability at 10 µM ([3]; Homo sapiens, DU-145, 96 h, low attachment U-bottom plate, 10 μM, read-out: number of viable cells (RLU), relative value to control (100%)) was 120 to 150%, the viability at 5 µM ([3]; Homo sapiens, DU-145, 96 h, low attachment flat bottom plate (gellan gum medium), 5 μM, read-out: number of viable cells (RLU), relative value to control (100%)) was 120 to 150% and the “number … relative value to control (100%)” value [3, 10] was “⊙”. It also gave a viability at 5 µM [4, 7] of under 119%, a viability at 10 µM [4, 8] of 120 to 150% and a viability at 5 µM [4, 9] of 120 to 150%. It also gave a viability at 10 µM [4, 10] of 120 to 150%, a viability at 5 µM ([5]; Homo sapiens, 96 h, low attachment U-bottom plate, 5 μM, read-out: number of viable cells (RLU), relative value to control (100%)) of under 119% and a viability at 10 µM ([5]; Homo sapiens, 96 h, low attachment U-bottom plate, 10 μM, read-out: number of viable cells (RLU), relative value to control (100%)) of under 119%.
